Data on 3 compounds can be found in publication PMC12622802, “Potent kinase inhibitors from the Merck KGaA OGHL: Novel hits against Trypanosoma brucei with potential for repurposing” (PLOS Neglected Tropical Diseases, 2025).

Data set [1] deals with human CX3C motif chemokine receptor 1 (CX3CR1). Also noted: method as in printed. The conditions noted are these: known human target; ref not given; cited from earlier work.
The test system of data set [2] is bloodstream forms of T. b. brucei Lister 427. Description: Resazurin reduction growth inhibition assay against bloodstream forms of T. b. brucei. The conditions noted are these: 72 hours, read-out: IC50 ± SD (µM) T. b. b. The data set is classed as cell-based, Trypanosoma brucei brucei. The method, then:
Bloodstream forms of T. b. brucei Lister 427, a virulent laboratory strain of Trypanosoma brucei were cultured in HMI-9 medium as previously described. […] The resulting signal measured between 570 nm and 590 nm, is directly proportional to the quantity of viable parasites. […] After incubation, a working solution of resazurin (0.15 mg/mL in DPBS) was added to the plates in a 1:10 (v/v) ratio, followed by incubation for 4 hours at 37 °C with 5% CO2. Fluorescence was measured using an Infinite M200 microplate reader (Tecan) at excitation and emission wavelengths of 530 nm and 590 nm, respectively. Compound achieving ≥ 50% inhibition of trypanosomes were selected for further dose-response studies.
Compounds that adhered to the cutoff criterion (≥ 50% inhibition) were serially diluted and tested for their half-maximal inhibitory concentrations (IC50). […] Dose-response curves were generated using GraphPad Prism software (version 8.0). […]
Data were analysed using Microsoft Excel and GraphPad Prism 8.0. Nonlinear regression with a sigmoidal dose-response fit model was applied to the data to determine IC50 and CC50 values.
On the technique in general: Alamar Blue is a resazurin reagent that responds to reducing activity.

A short description of data set [3]: Cytotoxicity, resazurin reduction assay, HepG2. The data set is classed as cell-based, human. The conditions noted are these: human. Here is the method:
Vero E6 (African green monkey kidney), Raw264.7 (murine macrophages) and HepG2 (human hepatocyte carcinoma) cell lines, sourced from the American Type Culture Collection, were cultured in DMEM supplemented with 10% (v/v) heat-inactivated fetal bovine serum, 1% (v/v) non-essential amino acids, and 1% (v/v) penicillin-streptomycin. Cells were maintained at 37 °C in a 5% CO2 atmosphere. For cytotoxicity testing, they were seeded (90 µL) in 96-well plates at a density of 1x10^4 cells/well, in duplicate, and allowed to adhere overnight. Serial dilutions (50-0.08 µM) of the compounds were prepared, and 10 µL of each were incubated with the monolayer for 48 hours. Podophyllotoxin was tested as a positive control at 10 μM and 0.5% DMSO (100% cell viability) was used as negative control. Cell viability was then assessed using the resazurin reduction assay, as described above. The 50% cytotoxic concentration (CC50) was calculated using GraphPad Prism software (version 8.0), and selectivity indices (SIs) were determined by dividing the […].
Data were analysed using Microsoft Excel and GraphPad Prism 8.0. Nonlinear regression with a sigmoidal dose-response fit model was applied to the data to determine IC50 and CC50 values. Results represent the mean ± standard deviation (SD) from two independent experiments performed in duplicate.

The test system of data set [4] is bloodstream forms of T. b. brucei. Description: Rescue experiment (4 h exposure, washout, drug-free medium). The data set is classed as cell-based, Trypanosoma brucei brucei. The conditions noted are these: 72 hours monitoring, 4xIC50 and 8xIC50. Here is the method: (§1) To evaluate the killing kinetics of selected compounds, bloodstream forms of T. b. brucei (2 x 10⁵ cells/mL) were incubated in normal culture conditions in the presence of compounds at 8IC50, 4IC50, IC50, and 0.25IC50 concentrations in 24-well plates. Upon incubation, cultures were centrifuged at 0, 4, 8, 12, 24, 30, 36, 48, 60, and 72 hours’ time intervals at 2,500 rpm followed by motile trypanosomes enumeration using a Lumascope LS520 inverted microscope. To determine the mode of inhibition (parasitostatic or parasiticidal), a rescue experiment was conducted. Trypanosomes were exposed to the test doses (8IC50, 4IC50, IC50, and 0.25IC50) of the compounds for 4 hours. They were then washed three times with phosphate buffer saline (DPBS 1X), centrifuged at 2,500 rpm for 7 minutes, and resuspended in complete drug-free medium. These parasites were cultured under the same conditions, and motile organisms were enumerated with the Neubauer chamber at regular intervals over 72 hours. Data were plotted using GraphPad Prism 8.0 to determine the inhibition kinetics and classify the inhibitors as cidal or static. Pentamidine isethionate served as the reference compound and experiments were performed in duplicate.

A short description of data set [5]: Cytotoxicity, resazurin reduction assay, Raw264.7. The data set is classed as cell-based, murine. As to conditions: mouse. The method, then:
(§2) For cytotoxicity testing, they were seeded (90 µL) in 96-well plates at a density of 1x10^4 cells/well, in duplicate, and allowed to adhere overnight. […] Cell viability was then assessed using the resazurin reduction assay, as described above. […] Data were analysed using Microsoft Excel and GraphPad Prism 8.0. Nonlinear regression with a sigmoidal dose-response fit model was applied to the data to determine IC50 and CC50 values. Results represent the mean ± standard deviation (SD) from two independent experiments performed in duplicate.

Data set [6] can be described thus: Cytotoxicity, resazurin reduction assay, Vero. The data set is classed as cell-based. As to conditions: African green monkey. The method, then:
as §2

The test system of data set [7] is bloodstream forms of T. b. brucei. In words: Trypanosome killing kinetics (time-kill assay). The data set is classed as cell-based, Trypanosoma brucei brucei. As to conditions: 8IC50, 4IC50, IC50, 0.25IC50; over 72 hours. The method, then: as §1
The test system of a further data set is normal cells. The arrangement: method as in ref 37 = [37]; 37 Dorsch D , Wucherer-Plietker M , Mueller TJ , Merkul E . 3-([1,2,3]triazole-4-yl)-pyrrolo[2,3-b]pyridine derivates . World Intellectual Property Organization . 2010 . https://patents.google.com/pat. The conditions noted are these: cited from earlier work.
Data set [8] concerns the target TANK-binding kinase 1 (TBK1). The arrangement: method as in ref 37 = [37]; 37 Dorsch D , Wucherer-Plietker M , Mueller TJ , Merkul E . 3-([1,2,3]triazole-4-yl)-pyrrolo[2,3-b]pyridine derivates . World Intellectual Property Organization . 2010 . https://patents.google.com/pat. The conditions noted are these: cited from earlier work.
The conditions of data set [9]: HAT regimens; cited from earlier work.
Setting [10] is: Trypanosoma brucei, 72 h, confirmation screen, powdered form.
Setting [11] is: Trypanosoma brucei, 72 h, primary screen, DMSO stock solution, bloodstream form T. b. brucei Lister 427.
Where [12] appears, read: primary screen, DMSO stock solution, bloodstream form T. b. brucei Lister 427.

Broadly, the IC50 is the concentration needed to halve the response being measured. In general, CC50 refers to the concentration at which the toxic effect on the cells reaches its halfway point.

“Also recorded” adds a separate entry of the source. Where two headings read alike, the source gives them in different places.

Take `CN(C)C(=O)/C=C/C(=O)c1ccc(SCc2ccc(Cl)cc2Cl)cc1` [OGHL00006, (E)-4-(4-((2,4-dichlorobenzyl)thio)phenyl)-N,N-dimethyl-4-oxobut-2-enamide]: the half-inhibitory concentration (IC50) in data set [1] was 526 nM; in [2] (setting [10]) it was 0.6 ± 0.1 µM; in [2] (setting [11]), not above 1 µM; in data set [2] (setting [12]), 0.56 ± 0.001 µM. Moreover, the CC50 at 48 h in data set [3] is 17500 ± 940 nM; in [5] it was 2200 ± 50 nM; in [6], 1200 ± 70 nM. Further, the “effect after short exposure and washout (reversible or irreversible)” value in [4] is reported as “irreversible trypanocidal activity; also recorded: irreversible trypanocidal effects”. The “activity profile in time-kill assay (trypanocidal or cytostatic)” value in [7] is “strong trypanocidal activity”.

Consider `Cn1cc(-c2cnc3[nH]cc(-c4cn(Cc5cccc(F)c5F)nn4)c3c2)cn1` [OGHL00169, 3-(1-(2,3-difluorobenzyl)-1H-1,2,3-triazol-4-yl)-5-(1-methyl-1H-pyrazol-4-yl)-1H-pyrrolo[2,3-b]pyridine], for which the concentration for half-maximal inhibition (IC50) in [2] (setting [10]) is 0.25 ± 0.04 µM; in data set [2] (setting [11]), not above 1 µM; in data set [2] (setting [12]), 0.85 ± 0.02 µM; in [8], 0.196 nM. Moreover, in the data set on normal cells, the CC50 was 1000 to 10000 nM. Moreover, the half-maximal cytotoxic concentration (CC50) at 48 h came to 50000 nM in data set [3], 12100 ± 1600 nM in data set [5] and 2800 ± 30 nM in data set [6]. For the same compound, the “effect after short exposure and washout (reversible or irreversible)” value in data set [4] is on record as “irreversible trypanocidal activity; also recorded: irreversible trypanocidal effects”. For the same compound, in data set [7], the “activity profile in time-kill assay (trypanocidal or cytostatic)” value is “strong trypanocidal activity”.

Regarding `Nc1nc(N)nc(Nc2ccc([As]3SCC(CO)S3)cc2)n1` (centres unmarked) [melarsoprol], the “fatal encephalopathy, percentage of cases” value in data set [9] was 5–10%.
